ChEMBL document CHEMBL1147101, “Development and persistence of antimicrobial resistance in Pseudomonas aeruginosa: a longitudinal observation in mechanically ventilated patients” (Antimicrob Agents Chemother, 2007)
The source made the active and inactive calls. No cut-off for these calls is given here.

How the values were obtained:
Format in all cases: functional, organism-based
Settings in all cases: Trachea
Pseudomonas aeruginosa [1] = assay: Antimicrobial activity against Pseudomonas aeruginosa 65.38-3 tracheal isolates from mechanically ventilated tuberculosis patient
Pseudomonas aeruginosa [2] = assay: Antimicrobial activity against Pseudomonas aeruginosa 65.38-4 tracheal isolates from mechanically ventilated tuberculosis patient
Pseudomonas aeruginosa [3] = assay: Antimicrobial activity against Pseudomonas aeruginosa 1C9 tracheal isolates from mechanically ventilated tuberculosis patient
Pseudomonas aeruginosa [4] = assay: Antimicrobial activity against Pseudomonas aeruginosa 13D11 tracheal isolates from mechanically ventilated chronic respiratory insufficiency patient
Pseudomonas aeruginosa [5] = assay: Antimicrobial activity against Pseudomonas aeruginosa 2A1 tracheal isolates from mechanically ventilated tuberculosis patient
Pseudomonas aeruginosa [6] = assay: Antimicrobial activity against Pseudomonas aeruginosa 2B5 tracheal isolates from mechanically ventilated tuberculosis patient
Pseudomonas aeruginosa [7] = assay: Antimicrobial activity against Pseudomonas aeruginosa 65.68-3 tracheal isolates from mechanically ventilated tuberculosis patient
Pseudomonas aeruginosa [8] = assay: Antimicrobial activity against Pseudomonas aeruginosa 16D5 tracheal isolates from mechanically ventilated chronic respiratory insufficiency patient
Pseudomonas aeruginosa [9] = assay: Antimicrobial activity against Pseudomonas aeruginosa 19C5 tracheal isolates from mechanically ventilated chronic respiratory insufficiency patient
Pseudomonas aeruginosa [10] = assay: Antimicrobial activity against Pseudomonas aeruginosa 5F8 tracheal isolates from mechanically ventilated chronic respiratory insufficiency patient
Pseudomonas aeruginosa [11] = assay: Antimicrobial activity against Pseudomonas aeruginosa 9A7 tracheal isolates from mechanically ventilated chronic respiratory insufficiency patient
Pseudomonas aeruginosa [12] = assay: Antimicrobial activity against Pseudomonas aeruginosa 9B2 tracheal isolates from mechanically ventilated chronic respiratory insufficiency patient
Pseudomonas aeruginosa [13] = assay: Antimicrobial activity against Pseudomonas aeruginosa 10B1 tracheal isolates from mechanically ventilated chronic respiratory insufficiency patient
Pseudomonas aeruginosa [14] = assay: Antimicrobial activity against Pseudomonas aeruginosa 29H1 tracheal isolates from mechanically ventilated chronic respiratory insufficiency patient
Pseudomonas aeruginosa [15] = assay: Antimicrobial activity against Pseudomonas aeruginosa 22D9 tracheal isolates from mechanically ventilated chronic respiratory insufficiency patient
Pseudomonas aeruginosa [16] = assay: Antimicrobial activity against Pseudomonas aeruginosa 22E1 tracheal isolates from mechanically ventilated chronic respiratory insufficiency patient
Pseudomonas aeruginosa [17] = assay: Antimicrobial activity against Pseudomonas aeruginosa 22E3 tracheal isolates from mechanically ventilated chronic respiratory insufficiency patient
Pseudomonas aeruginosa [18] = assay: Antimicrobial activity against Pseudomonas aeruginosa 22C5 tracheal isolates from mechanically ventilated chronic respiratory insufficiency patient
Pseudomonas aeruginosa [19] = assay: Antimicrobial activity against Pseudomonas aeruginosa 24D1 tracheal isolates from mechanically ventilated chronic respiratory insufficiency patient
Pseudomonas aeruginosa [20] = assay: Antimicrobial activity against Pseudomonas aeruginosa 24F4 tracheal isolates from mechanically ventilated chronic respiratory insufficiency patient
Pseudomonas aeruginosa [21] = assay: Antimicrobial activity against Pseudomonas aeruginosa 65.18-1 tracheal isolates from mechanically ventilated tuberculosis patient
Pseudomonas aeruginosa [22] = assay: Antimicrobial activity against Pseudomonas aeruginosa 65.18-2 tracheal isolates from mechanically ventilated tuberculosis patient
Pseudomonas aeruginosa [23] = assay: Antimicrobial activity against Pseudomonas aeruginosa 65.18-3 tracheal isolates from mechanically ventilated tuberculosis patient
Pseudomonas aeruginosa [24] = assay: Antimicrobial activity against Pseudomonas aeruginosa 65.18-4 tracheal isolates from mechanically ventilated tuberculosis patient
Pseudomonas aeruginosa [25] = assay: Antimicrobial activity against Pseudomonas aeruginosa IA5 tracheal isolates from mechanically ventilated tuberculosis patient
Pseudomonas aeruginosa [26] = assay: Antimicrobial activity against Pseudomonas aeruginosa IC7 tracheal isolates from mechanically ventilated tuberculosis patient
Pseudomonas aeruginosa [27] = assay: Antimicrobial activity against Pseudomonas aeruginosa 65.33-1 tracheal isolates from mechanically ventilated tuberculosis patient
Pseudomonas aeruginosa [28] = assay: Antimicrobial activity against Pseudomonas aeruginosa 65.33-3 tracheal isolates from mechanically ventilated tuberculosis patient
Pseudomonas aeruginosa [29] = assay: Antimicrobial activity against Pseudomonas aeruginosa 65.36-3 tracheal isolates from mechanically ventilated tuberculosis patient
Pseudomonas aeruginosa [30] = assay: Antimicrobial activity against Pseudomonas aeruginosa 65.38-1 tracheal isolates from mechanically ventilated tuberculosis patient
Pseudomonas aeruginosa [31] = assay: Antimicrobial activity against Pseudomonas aeruginosa 65.38-2 tracheal isolates from mechanically ventilated tuberculosis patient
Pseudomonas aeruginosa [32] = assay: Antimicrobial activity against Pseudomonas aeruginosa 15G10 tracheal isolates from mechanically ventilated chronic respiratory insufficiency patient
Pseudomonas aeruginosa [33] = assay: Antimicrobial activity against Pseudomonas aeruginosa 13D3 tracheal isolates from mechanically ventilated chronic respiratory insufficiency patient
Pseudomonas aeruginosa [34] = assay: Antimicrobial activity against Pseudomonas aeruginosa 13D6 tracheal isolates from mechanically ventilated chronic respiratory insufficiency patient
Pseudomonas aeruginosa [35] = assay: Antimicrobial activity against Pseudomonas aeruginosa 16D2 tracheal isolates from mechanically ventilated chronic respiratory insufficiency patient
Pseudomonas aeruginosa [36] = assay: Antimicrobial activity against Pseudomonas aeruginosa 19B1 tracheal isolates from mechanically ventilated chronic respiratory insufficiency patient
Pseudomonas aeruginosa [37] = assay: Antimicrobial activity against Pseudomonas aeruginosa 19C12 tracheal isolates from mechanically ventilated chronic respiratory insufficiency patient
Pseudomonas aeruginosa [38] = assay: Antimicrobial activity against Pseudomonas aeruginosa 19D10 tracheal isolates from mechanically ventilated chronic respiratory insufficiency patient
Pseudomonas aeruginosa [39] = assay: Antimicrobial activity against Pseudomonas aeruginosa 19E1 tracheal isolates from mechanically ventilated chronic respiratory insufficiency patient
Pseudomonas aeruginosa [40] = assay: Antimicrobial activity against Pseudomonas aeruginosa 19E12 tracheal isolates from mechanically ventilated chronic respiratory insufficiency patient
Pseudomonas aeruginosa [41] = assay: Antimicrobial activity against Pseudomonas aeruginosa 19F1 tracheal isolates from mechanically ventilated chronic respiratory insufficiency patient
Pseudomonas aeruginosa [42] = assay: Antimicrobial activity against Pseudomonas aeruginosa 19F2 tracheal isolates from mechanically ventilated chronic respiratory insufficiency patient
Pseudomonas aeruginosa [43] = assay: Antimicrobial activity against Pseudomonas aeruginosa 24E1 tracheal isolates from mechanically ventilated chronic respiratory insufficiency patient
Pseudomonas aeruginosa [44] = assay: Antimicrobial activity against Pseudomonas aeruginosa 24E2 tracheal isolates from mechanically ventilated chronic respiratory insufficiency patient
Pseudomonas aeruginosa [45] = assay: Antimicrobial activity against Pseudomonas aeruginosa 24E6 tracheal isolates from mechanically ventilated chronic respiratory insufficiency patient
Pseudomonas aeruginosa [46] = assay: Antimicrobial activity against Pseudomonas aeruginosa 23C5 tracheal isolates from mechanically ventilated chronic respiratory insufficiency patient
Pseudomonas aeruginosa [47] = assay: Antimicrobial activity against Pseudomonas aeruginosa 19C2 tracheal isolates from mechanically ventilated chronic respiratory insufficiency patient
Pseudomonas aeruginosa [48] = assay: Antimicrobial activity against Pseudomonas aeruginosa 24D5 tracheal isolates from mechanically ventilated chronic respiratory insufficiency patient

## O=C(O)c1cn(C2CC2)c2cc(N3CCNCC3)c(F)cc2c1=O
Pseudomonas aeruginosa [1]
  Activity: Active
Pseudomonas aeruginosa [2]
  Activity: Active
Pseudomonas aeruginosa [3]
  Activity: Active
Pseudomonas aeruginosa [4]
  Activity: Active
Pseudomonas aeruginosa [5]
  Activity: Active
Pseudomonas aeruginosa [6]
  Activity: Active
Pseudomonas aeruginosa [7]
  Activity: Active
Pseudomonas aeruginosa [8]
  Activity: Active
Pseudomonas aeruginosa [9]
  Activity: Active
Pseudomonas aeruginosa [10]
  Activity: Active
Pseudomonas aeruginosa [11]
  Activity: Active
Pseudomonas aeruginosa [12]
  Activity: Active
Pseudomonas aeruginosa [13]
  Activity: Active
Pseudomonas aeruginosa [14]
  Activity: inactive
Pseudomonas aeruginosa [15]
  Activity: Active
Pseudomonas aeruginosa [16]
  Activity: Active
Pseudomonas aeruginosa [17]
  Activity: Active
Pseudomonas aeruginosa [18]
  Activity: Active
Pseudomonas aeruginosa [19]
  Activity: Active
Pseudomonas aeruginosa [20]
  Activity: Active
Pseudomonas aeruginosa [21]
  Activity: Active
Pseudomonas aeruginosa [22]
  Activity: Active
Pseudomonas aeruginosa [23]
  Activity: Active
Pseudomonas aeruginosa [24]
  Activity: Active
Pseudomonas aeruginosa [25]
  Activity: Active
Pseudomonas aeruginosa [26]
  Activity: Active
Pseudomonas aeruginosa [27]
  Activity: Active
Pseudomonas aeruginosa [28]
  Activity: Active
Pseudomonas aeruginosa [29]
  Activity: Active
Pseudomonas aeruginosa [30]
  Activity: Active
Pseudomonas aeruginosa [31]
  Activity: Active

## CO/N=C(\C(=O)N[C@@H]1C(=O)N2C(C(=O)[O-])=C(C[N+]3(C)CCCC3)CS[C@H]12)c1csc(N)n1
Pseudomonas aeruginosa [2]
  Activity: Active
Pseudomonas aeruginosa [3]
  Activity: Active
Pseudomonas aeruginosa [4]
  Activity: Active
Pseudomonas aeruginosa [32]
  Activity: Active
Pseudomonas aeruginosa [5]
  Activity: Active
Pseudomonas aeruginosa [6]
  Activity: Active
Pseudomonas aeruginosa [7]
  Activity: Active
Pseudomonas aeruginosa [33]
  Activity: Active
Pseudomonas aeruginosa [34]
  Activity: Active
Pseudomonas aeruginosa [35]
  Activity: Active
Pseudomonas aeruginosa [8]
  Activity: Active
Pseudomonas aeruginosa [36]
  Activity: Active
Pseudomonas aeruginosa [9]
  Activity: Active
Pseudomonas aeruginosa [37]
  Activity: Active
Pseudomonas aeruginosa [38]
  Activity: Active
Pseudomonas aeruginosa [10]
  Activity: Active
Pseudomonas aeruginosa [11]
  Activity: Active
Pseudomonas aeruginosa [12]
  Activity: Active
Pseudomonas aeruginosa [13]
  Activity: Active
Pseudomonas aeruginosa [14]
  Activity: inactive
Pseudomonas aeruginosa [39]
  Activity: Active
Pseudomonas aeruginosa [40]
  Activity: Active
Pseudomonas aeruginosa [41]
  Antimicrobial activity: Active
Pseudomonas aeruginosa [42]
  Activity: Active
Pseudomonas aeruginosa [15]
  Activity: Active
Pseudomonas aeruginosa [16]
  Activity: Active
Pseudomonas aeruginosa [17]
  Activity: Active
Pseudomonas aeruginosa [18]
  Activity: Active
Pseudomonas aeruginosa [19]
  Activity: Active
Pseudomonas aeruginosa [43]
  Activity: Active
Pseudomonas aeruginosa [44]
  Activity: Active
Pseudomonas aeruginosa [45]
  Activity: Active
Pseudomonas aeruginosa [46]
  Activity: Active
Pseudomonas aeruginosa [21]
  Activity: Active
Pseudomonas aeruginosa [22]
  Activity: Active
Pseudomonas aeruginosa [23]
  Activity: Active
Pseudomonas aeruginosa [24]
  Activity: Active
Pseudomonas aeruginosa [25]
  Activity: Active
Pseudomonas aeruginosa [26]
  Activity: Active
Pseudomonas aeruginosa [27]
  Activity: Active
Pseudomonas aeruginosa [30]
  Activity: inactive

## C[C@@H](O)[C@H]1C(=O)N2C(C(=O)O)=C(SCCNC=N)C[C@H]12
Pseudomonas aeruginosa [1]
  Activity: inactive
Pseudomonas aeruginosa [4]
  Activity: Active
Pseudomonas aeruginosa [32]
  Activity: Active
Pseudomonas aeruginosa [5]
  Activity: inactive
Pseudomonas aeruginosa [6]
  Activity: inactive
Pseudomonas aeruginosa [7]
  Activity: inactive
Pseudomonas aeruginosa [33]
  Activity: Active
Pseudomonas aeruginosa [34]
  Activity: Active
Pseudomonas aeruginosa [35]
  Activity: Active
Pseudomonas aeruginosa [8]
  Activity: Active
Pseudomonas aeruginosa [36]
  Activity: Active
Pseudomonas aeruginosa [47]
  Activity: Active
Pseudomonas aeruginosa [37]
  Activity: Active
Pseudomonas aeruginosa [38]
  Activity: Active
Pseudomonas aeruginosa [10]
  Activity: Active
Pseudomonas aeruginosa [11]
  Activity: Active
Pseudomonas aeruginosa [12]
  Activity: Active
Pseudomonas aeruginosa [13]
  Activity: Active
Pseudomonas aeruginosa [39]
  Activity: Active
Pseudomonas aeruginosa [40]
  Activity: Active
Pseudomonas aeruginosa [41]
  Antimicrobial activity: Active
Pseudomonas aeruginosa [42]
  Activity: Active
Pseudomonas aeruginosa [15]
  Activity: Active
Pseudomonas aeruginosa [16]
  Activity: Active
Pseudomonas aeruginosa [17]
  Activity: Active
Pseudomonas aeruginosa [18]
  Activity: Active
Pseudomonas aeruginosa [48]
  Activity: Active
Pseudomonas aeruginosa [43]
  Activity: Active
Pseudomonas aeruginosa [44]
  Activity: Active
Pseudomonas aeruginosa [45]
  Activity: Active
Pseudomonas aeruginosa [46]
  Activity: Active
Pseudomonas aeruginosa [20]
  Activity: Active
Pseudomonas aeruginosa [21]
  Activity: Active
Pseudomonas aeruginosa [22]
  Activity: Active
Pseudomonas aeruginosa [23]
  Activity: inactive
Pseudomonas aeruginosa [24]
  Activity: inactive
Pseudomonas aeruginosa [26]
  Activity: inactive
Pseudomonas aeruginosa [27]
  Activity: inactive
Pseudomonas aeruginosa [28]
  Activity: inactive
Pseudomonas aeruginosa [29]
  Activity: inactive
Pseudomonas aeruginosa [30]
  Activity: inactive
Pseudomonas aeruginosa [31]
  Activity: inactive
